{"source": "patent US12624018B1", "about": "“Inhibitors of RIPK2 and medical uses thereof” (Odyssey Therapeutics, Inc., priority 2022, dated 2026)", "data": [{"target": "T1, RIPK2 enzyme (Homo sapiens, UniProt O43353)", "T1 construct": "purchased Carna 09-128", "T1 sequence (O43353 1-299 limits assumed)": "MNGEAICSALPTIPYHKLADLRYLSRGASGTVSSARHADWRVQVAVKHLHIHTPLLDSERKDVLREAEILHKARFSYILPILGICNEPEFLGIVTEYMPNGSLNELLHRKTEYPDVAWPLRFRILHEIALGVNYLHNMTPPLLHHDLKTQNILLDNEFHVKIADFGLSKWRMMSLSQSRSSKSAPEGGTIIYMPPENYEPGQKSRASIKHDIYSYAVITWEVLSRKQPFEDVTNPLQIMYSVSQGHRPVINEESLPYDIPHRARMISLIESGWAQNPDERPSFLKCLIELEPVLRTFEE", "assay": "RIPK2 inhibition (ADP-Glo Kinase Assay)", "assay_type": "biochemical", "conditions": "RIPK2 5 nM, ATP 150 μM, MBP substrate, read-out: RIPK2 IC50", "procedure,_shortened": "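Human RIPK2 (5 nM) preincubated with compound 30 min at room temperature in 50 mM HEPES pH 7.5, 10 mM MgCl2, 2 mM DTT, 1 mM EGTA, 0.01% Brij-35, 0.05% BSA; native swine MBP as substrate. ADP formed quantified by ADP-Glo luminescence; percent inhibition relative to DMSO and no-enzyme controls.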", "units": {"IC50": "nM"}, "values": [{"compound": "CCP(=O)(CC)c1ccc2nccc(Oc3ccc(CC(=O)Nc4cnn(C(C)(C)C)c4)c(F)c3C)c2c1", "note": "[Compound 301, N-(1-(tert-butyl)-1H-pyrazol-4-yl)-2-(4-((6-(diethylphosphoryl)quinolin-4-yl)oxy)-2-fluoro-3-methylphenyl) acetamide]", "IC50": "< 2.5"}, {"compound": "CCNC(=O)c1ccc2nccc(Oc3ccc(CC(=O)Nc4cnn(C(C)(C)C)c4)c(F)c3C)c2c1", "note": "[Compound 338, 4-(4-(2-((1-(tert-butyl)-1H-pyrazol-4-yl)amino)-2-oxoethyl)-3-fluoro-2-methyl-phenoxy)-N-ethylquinoline-6-carboxamide]", "IC50": "< 2.5"}, {"compound": "Cc1cc(CC(=O)Nc2cnn(C(C)(C)C)c2)c(F)cc1Oc1ccnc2ccc(C(=O)N(C)CCO)cc12", "note": "[Compound 365, 4-(4-(2-((1-(tert-butyl)-1H-pyrazol-4-yl)amino)-2-oxoethyl)-5-fluoro-2-methyl-phenoxy)-N-(2-hydroxy-ethyl)-N-methyl-quinoline-6-carboxamide]", "IC50": "< 2.5"}, {"compound": "CCN1CCC(Oc2ccc3ncnc(Oc4ccc(CC(=O)Nc5cnn(C(C)(C)C)c5)cc4Cl)c3c2)CC1", "note": "[Compound 160, N-(1-(tert-butyl)-1H-pyrazol-4-yl)-2-(3-chloro-4-((6-((1-ethyl-piperidin-4-yl)oxy)quinazolin-4-yl)oxy)phenyl) acetamide]", "IC50": "< 2.5"}, {"compound": "Cc1cc(CC(=O)Nc2cnn(C(C)(C)C)c2)ccc1Oc1ccnc2ccc(OCC3CCCN3)cc12", "note": "(single isomer, unassigned) [Compound 190, N-(1-(tert-butyl)-1H-pyrazol-4-yl)-2-(3-methyl-4-((6-(pyrrolidin-2-ylmethoxy)quinolin-4-yl)oxy)phenyl) acetamide]", "IC50": "< 2.5"}, {"compound": "COC(C)(C)c1cc(NC(=O)Cc2ccc(Oc3ccnc4ccc(S(C)(=O)=O)cc34)c(C)c2)[nH]n1", "note": "[Compound 330, N-(5-(2-methoxypropan-2-yl)-1H-pyrazol-3-yl)-2-(3-methyl-4-((6-(methylsulfonyl)quinolin-4-yl)oxy)phenyl)acetamide]", "IC50": "< 2.5"}, {"compound": "Cc1cc(CC(=O)Nc2cnn(C(C)(C)C)c2)ccc1Oc1ccnc2ccc(S(=O)(=O)CC3CC3)cc12", "note": "[Compound 205, N-(1-(tert-butyl)-1H-pyrazol-4-yl)-2-(4-((6-((cyclopropylmethyl)sulfonyl)quinolin-4-yl)oxy)-3-methylphenyl)acetamide]", "IC50": "< 2.5"}, {"compound": "CC(C)(C)n1cc(NC(=O)Cc2ccc(Oc3ccnc4ccc(S(C)(=O)=O)cc34)c(C#N)c2)cn1", "note": "[Compound 432, N-(1-(tert-butyl)-1H-pyrazol-4-yl)-2-(3-cyano-4-((6-(methylsulfonyl)quinolin-4-yl)oxy)phenyl)acetamide]", "IC50": 2.8}, {"compound": "Cc1cc(CC(=O)Nc2cnn(C(C)(C)C)c2)ccc1Oc1ccnc2ccc(OCCO)cc12", "note": "[Compound 223, N-(1-(tert-butyl)-1H-pyrazol-4-yl)-2-(4-((6-(2-hydroxy-ethoxy)quinolin-4-yl)oxy)-3-methylphenyl) acetamide]", "IC50": "< 2.5"}, {"compound": "CN1CC[C@@H](Oc2ccc3ncnc(Oc4cnc(CC(=O)Nc5cnn(C(C)(C)C)c5)c(F)c4)c3c2)C1", "note": "[Compound 60, (R)-N-(1-(tert-butyl)-1H-pyrazol-4-yl)-2-(3-fluoro-5-((6-((1-methylpyrrolidin-3-yl)oxy)quinazolin-4-yl)oxy)pyridin-2-yl)acetamide]", "IC50": 45.7}, {"compound": "Cc1cc(CC(=O)Nc2cnn(C(C)(C)C)c2)c(F)cc1Oc1ccnc2ccc(C(=O)N(CCO)CCO)cc12", "note": "[Compound 366, 4-(4-(2-((1-(tert-butyl)-1H-pyrazol-4-yl)amino)-2-oxoethyl)-5-fluoro-2-methyl-phenoxy)-N,N-bis(2-hydroxyethyl) quinoline-6-carboxamide]", "IC50": "< 2.5"}, {"compound": "CC(C)c1cc(NC(=O)Cc2ccc(Oc3ccnc4ccc(S(C)(=O)=O)cc34)cc2F)n[nH]1", "note": "[Compound 143, 2-(2-fluoro-4-((6-(methylsulfonyl)quinolin-4-yl)oxy)phenyl)-N-(5-isopropyl-1H-pyrazol-3-yl)acetamide]", "IC50": "< 2.5"}, {"compound": "Cc1cc(CC(=O)Nc2cnn(C(C)(C)C)c2)c(F)cc1Oc1ccnc2ccc(-c3cnccn3)cc12", "note": "[Compound 425, N-(1-(tert-butyl)-1H-pyrazol-4-yl)-2-(2-fluoro-5-methyl-4-((6-(pyrazin-2-yl)quinolin-4-yl)oxy)phenyl)acetamide]", "IC50": "< 2.5"}, {"compound": "CC(C)(C)n1cc(NC(=O)Cc2ccc(Oc3ccnc4ccc(S(=N)(=O)C5CC5)cc34)cc2F)cn1", "note": "(stereo not drawn) [Compound 72, N-(1-(tert-butyl)-1H-pyrazol-4-yl)-2-(4-((6-(cyclopropanesulf-onimidoyl)quinolin-4-yl)oxy)-2-fluorophenyl) acetamide]", "IC50": "< 2.5"}, {"compound": "Cc1cc(CC(=O)Nc2cnn(C(C)(C)C)c2)c(F)cc1Oc1ccnc2ccc(C(=O)N3[C@H](C)COC[C@@H]3C)cc12", "note": "[Compound 451, N-(1-(tert-butyl)-1H-pyrazol-4-yl)-2-(4-((6-((3S,5R)-3,5-dimethylmorpholine-4-carbonyl)quinolin-4-yl)oxy)-2-fluoro-5-methylphenyl)acetamide]", "IC50": "< 2.5"}, {"compound": "CCN1CCC(Oc2ccc3nccc(Oc4cnc(CC(=O)Nc5cnn(C(C)(C)C)c5)c(F)c4)c3c2)CC1", "note": "[Compound 108, N-(1-(tert-butyl)-1H-pyrazol-4-yl)-2-(5-((6-((1-ethylpiperidin-4-yl)oxy)quinolin-4-yl)oxy)-3-fluoropyridin-2-yl)acetamide]", "IC50": 11.3}, {"compound": "CC(=O)N1CC(Oc2ccc3nccc(Oc4ccc(CC(=O)Nc5cnn(C(C)(C)C)c5)cc4C)c3c2)C1", "note": "[Compound 229, 2-(4-((6-((1-acetylazetidin-3-yl)oxy)quinolin-4-yl)oxy)-3-methyl-phenyl)-N-(1-(tert-butyl)-1H-pyrazol-4-yl)acetamide]", "IC50": "< 2.5"}, {"compound": "COc1ccc2ncnc(Oc3cnc(CC(=O)Nc4cnn(C(C)(C)C)c4)c(Cl)c3)c2c1", "note": "[Compound 10, N-(1-(tert-butyl)-1H-pyrazol-4-yl)-2-(3-chloro-5-((6-methoxyquinazolin-4-yl)oxy)pyridin-2-yl)acetamide]", "IC50": 43.5}, {"compound": "Cc1cc(CC(=O)Nc2cnn(C(C)(C)C)c2)ccc1Oc1ccnc2ccc(S(=O)(=O)N3CCNCC3)cc12", "note": "[Compound 119, N-(1-(tert-butyl)-1H-pyrazol-4-yl)-2-(3-methyl-4-((6-(piperazin-1-ylsulfonyl)quinolin-4-yl)oxy)phenyl)acetamide]", "IC50": "< 2.5"}, {"compound": "Cc1c(Oc2ccnc3ccc(C(N)=O)cc23)ccc(CC(=O)Nc2cnn(C(C)(C)C)c2)c1F", "note": "[Compound 334, 4-(4-(2-((1-(tert-butyl)-1H-pyrazol-4-yl)amino)-2-oxoethyl)-3-fluoro-2-methyl-phenoxy) quinoline-6-carboxamide]", "IC50": "< 2.5"}, {"compound": "COc1cc2nccc(Oc3ccc(CC(=O)Nc4cnn(C(C)(C)C)c4)c(F)c3)c2cc1S(=O)(=O)C(C)(C)C", "note": "[Compound 3, N-(1-(tert-butyl)-1H-pyrazol-4-yl)-2-(4-((6-(tert-butylsulfonyl)-7-methoxyquinolin-4-yl)oxy)-2-fluorophenyl)acetamide]", "IC50": "< 2.5"}, {"compound": "Cc1c(Oc2ccnc3ccc(S(=O)(=O)C4CC(N)C4)cc23)ccc(CC(=O)Nc2cnn(C(C)(C)C)c2)c1F", "note": "(single isomer, unassigned) [Compound 287, 2-(4-((6-((-3-aminocyclobutyl)sulfonyl)quinolin-4-yl)oxy)-2-fluoro-3-methylphenyl)-N-(1-(tert-butyl)-1H-pyrazol-4-yl)acetamide]", "IC50": "< 2.5"}, {"compound": "CC(C)(C)n1cc(NC(=O)Cc2ccc(Oc3ccnc4ccc(S(=O)(=O)C5COC5)cc34)cc2F)cn1", "note": "[Compound 132, N-(1-(tert-butyl)-1H-pyrazol-4-yl)-2-(2-fluoro-4-((6-(oxetan-3-ylsulfonyl)quinolin-4-yl)oxy)phenyl)acetamide]", "IC50": "< 2.5"}, {"compound": "[2H]C([2H])([2H])n1nc(NC(=O)Cc2ccc(Oc3ccnc4ccc(S(C)(=O)=O)cc34)cc2F)cc1C(C)(C)C", "note": "[Compound 142, N-(5-(tert-butyl)-1-(methyl-d3)-1H-pyrazol-3-yl)-2-(2-fluoro-4-((6-(methylsulfonyl)quinolin-4-yl)oxy)phenyl)acetamide]", "IC50": "< 2.5"}, {"compound": "Cc1cc(CC(=O)Nc2cnn(C(C)(C)C)c2)ccc1Oc1ccnc2ccc(N3CCOCC3=O)cc12", "note": "[Compound 294, N-(1-(tert-butyl)-1H-pyrazol-4-yl)-2-(3-methyl-4-((6-(3-oxomorpholino)quinolin-4-yl)oxy)phenyl) acetamide]", "IC50": "< 2.5"}, {"compound": "Cc1c(Oc2ccnc3ccc(C(=O)N4CC(O)C4)cc23)ccc(CC(=O)Nc2cnn(C(C)(C)C)c2)c1F", "note": "[Compound 348, N-(1-(tert-butyl)-1H-pyrazol-4-yl)-2-(2-fluoro-4-((6-(3-hydroxy-azetidine-1-carbonyl)quinolin-4-yl)oxy)-3-methyl-phenyl) acetamide]", "IC50": "< 2.5"}, {"compound": "CC(C)(C)n1cc(NC(=O)Cc2ncc(Oc3ncnc4ccc(OC5CCNCC5)cc34)cc2F)cn1", "note": "[Compound 51, N-(1-(tert-butyl)-1H-pyrazol-4-yl)-2-(3-fluoro-5-((6-(piperidin-4-yloxy)quinazolin-4-yl)oxy)pyridin-2-yl)acetamide]", "IC50": 18.7}, {"compound": "COc1ccc2ncnc(Oc3ccc(CC(=O)Nc4cc(C(C)(C)C)ccn4)c(F)c3)c2c1", "note": "[Compound 28, N-(4-(tert-butyl)pyridin-2-yl)-2-(2-fluoro-4-((6-methoxy-quinazolin-4-yl)oxy)phenyl) acetamide]", "IC50": 12.7}, {"compound": "Cc1c(Oc2ccnc3ccc(S(=O)(=O)N4CCOCC4)cc23)ccc(CC(=O)Nc2cnn(C(C)(C)C)c2)c1F", "note": "[Compound 274, N-(1-(tert-butyl)-1H-pyrazol-4-yl)-2-(2-fluoro-3-methyl-4-((6-(morpholinosulfonyl)quinolin-4-yl)oxy)phenyl)acetamide]", "IC50": "< 2.5"}, {"compound": "CC(C)(C)n1cc(NC(=O)Cc2ccc(Oc3ccnc4ccc(-n5ccccc5=O)cc34)cc2F)cn1", "note": "[Compound 157, N-(1-(tert-butyl)-1H-pyrazol-4-yl)-2-(2-fluoro-4-((6-(2-oxopyridin-1(2H)-yl)quinolin-4-yl)oxy)phenyl) acetamide]", "IC50": 5.2}]}]}
